In patent publication US9006257B2, “Bicyclic compounds as mPGES-1 inhibitors” (Glenmark Pharmaceuticals S.A., priority 2012, dated 2015):

Biological target: T1, Recombinant human mPGES-1 (Homo sapiens, UniProt O14684)
T1 construct: made in house; host or cells: CHO cells
T1 sequence (O14684 1-152): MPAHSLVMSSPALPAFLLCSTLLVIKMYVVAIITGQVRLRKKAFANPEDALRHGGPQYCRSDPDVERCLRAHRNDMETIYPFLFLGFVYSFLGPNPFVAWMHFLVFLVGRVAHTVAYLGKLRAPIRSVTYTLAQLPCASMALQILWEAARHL
Assay: In-vitro mPGES-1 inhibitor screening (inhibition of PGE2 formation from PGH2, HTRF detection)
Format: biochemical
Settings: for inhibition at 1 µM: 1 μM test compound, read-out: Percentage inhibition at 1 μM; for inhibition at 1 µM / inhibition at 10 µM: crude microsomal fraction, 15 μM PGH2; for inhibition at 10 µM: 10 μM test compound, read-out: Percentage inhibition at 10 μM; for IC50: class symbol, concentration response curve
From the text: In-Vitro Protocol for Screening of mPGES-1 Inhibitors:
mPGES-1 (microsomal prostaglandin E synthase-1) is a microsomal enzyme that converts endoperoxide substrate PGH2 (prostaglandin H2) to product PGE2 (prostaglandin E2) by isomerization in the presence of reduced glutathione (GSH). mPGES-1 inhibitors were screened by assessing their ability to inhibit formation of PGE2 from PGH2 in presence of mPGES-1 using an anti-PGE2 antibody based detection method. Recombinant human mPGES-1 was generated in-house by expression in CHO cells (Ouellet M et al. (2002), Protein Expression and Purification 26: 489-495). The assay was set up using crude microsomal fractions at protein concentration of 40-60 μg/mL. Test compounds were prepared in 100% dimethyl sulfoxide (DMSO) to obtain 20 mM stock solution and then diluted using assay buffer comprising 0.1 M Potassium phosphate buffer with 2 mM EDTA. The final concentration of DMSO in reaction was 0.5% (v/v). Negative controls were comprised of all assay reagents except the enzyme. Positive controls were comprised of the enzyme reaction in the absence of any inhibitor. Test compounds were incubated for 10 minutes in assay buffer containing 2.5 mM GSH and mPGES-1 enzyme followed by addition of PGH2 at a concentration of 15 μM for 1 minute. The reaction was stopped by addition of Stannous chloride (11 mg/ml) and PGE2 levels were measured (Masse F et al. (2005), Journal of Biomolecular Screening 10(6) 599-605., Goedken R E et al. (2008), Journal of Biomolecular Screening 13(7): 619-625) by HTRF kit (CisBio)).
Inhibition of mPGES-1 enzyme activity was measured using the percent of reaction occurring in the positive control. Concentration response curves were plotted using percent inhibition of maximum enzyme reaction. The IC50 value was calculated from the concentration response curve by nonlinear regression analysis using GraphPad PRISM software.

Structure (SMILES)	inhibition at 1 µM [%]	inhibition at 10 µM [%]	IC50 [nM]
CC(C)(C)C(=O)NCc1ccc(Cl)c(C(=O)Nc2cccc3c(Oc4ccc(F)c(C(F)(F)F)c4)ncnc23)c1F [Example-52, 6-Chloro-2-fluoro-N-(4-(4-fluoro-3-(trifluoromethyl)phenoxy)quinazolin-8-yl)-3-(pivalamidomethyl)benzamide]	94.5	95.3	< 50
CCOc1ccnc2c(NC(=O)c3c(Cl)ccc(CNC(=O)C(C)(C)C)c3F)cccc12 [Example-63, 6-Chloro-N-(4-ethoxyquinolin-8-yl)-2-fluoro-3-(pivalamidomethyl)benzamide]	90.8	94.7	< 50
CC(C)(CO)C(=O)NCc1ccc(Cl)c(C(=O)Nc2cccc3c(Oc4cccc(C(F)(F)F)c4)ncnc23)c1F [Example-66, 6-Chloro-2-fluoro-3-((3-hydroxy-2,2-dimethylpropanamido)methyl)-N-(4-(3-(trifluoromethyl)phenoxy)quinazolin-8-yl)benzamide]	96.7	96.8	< 50
CC(C)C(=O)NCc1cnc(C(F)F)c(C(=O)Nc2cccc3c(Oc4cccc(C(F)(F)F)c4)ncnc23)c1 [Example-74, 2-(Difluoromethyl)-5-(isobutyramidomethyl)-N-(4-(3-(trifluoromethyl)phenoxy)quinazolin-8-yl)nicotinamide]	100	100	< 50
CC(C)(C)C(=O)NCc1ccc(Cl)c(C(=O)Nc2cccc3c(O[C@H]4CC[C@H](C(F)(F)F)CC4)nccc23)c1F [Example-50, 6-Chloro-2-fluoro-3-(pivalamidomethyl)-N-(1-(((1r,4r)-4-(trifluoromethyl)cyclohexyl)oxy)isoquinolin-5-yl)benzamide]	99.2	99.6	< 50
CCOc1ncnc2c(NC(=O)c3c(Cl)ccc(CNC(=O)C(C)(C)C)c3F)cccc12 [Example-43, 6-Chloro-N-(4-ethoxyquinazolin-8-yl)-2-fluoro-3-(pivalamidomethyl)benzamide]	98.4	99.9	< 50
CC(C)(C)C(=O)NCc1ccc(Cl)c(C(=O)Nc2cccc3c(Nc4cccc(C(F)(F)F)c4)nccc23)c1F [Example-1, 6-Chloro-2-fluoro-3-(pivalamidomethyl)-N-(1-((3-(trifluoromethyl)phenyl)amino)isoquinolin-5-yl)benzamide]	95.2	96.7	< 50
CC(C)(C)C(=O)NCc1ccc(Cl)c(C(=O)Nc2cccc3c(NC4CCC(F)(F)CC4)ncnc23)c1 [Example-14, 2-Chloro-N-(4-((4,4-difluorocyclohexyl)amino)quinazolin-8-yl)-5-(pivalamidomethyl)benzamide]	100	100	< 50
Cc1nc(Nc2cccc(C(F)(F)F)c2)c2cccc(NC(=O)c3c(Cl)ccc(CNC(=O)C(C)(C)C)c3F)c2n1 [Example-33, 6-Chloro-2-fluoro-N-(2-methyl-4-((3-(trifluoromethyl)phenyl)amino)quinazolin-8-yl)-3-(pivalamidomethyl)benzamide]	95.5	97.2	< 50
CC(C)(C)C(=O)NCc1ccc(Cl)c(C(=O)Nc2cccc3c(O[C@H]4CC[C@H](C(F)(F)F)CC4)ncnc23)c1F [Example-27, 6-Chloro-2-fluoro-3-(pivalamidomethyl)-N-(4-(((1r,4r)-4-(trifluoromethyl)cyclohexyl)oxy)quinazolin-8-yl)benzamide]	94.4	93.9	< 50
CC1(C)CCC(Nc2nc(C(F)(F)F)nc3c(NC(=O)c4c(Cl)ccc(CNC(=O)C(C)(C)C)c4F)cccc23)CC1 [Example-32, 6-Chloro-N-(4-((4,4-dimethylcyclohexyl)amino)-2-(trifluoromethyl)quinazolin-8-yl)-2-fluoro-3-(pivalamidomethyl)benzamide]	94.5	95.9	< 50
Cc1nc(NC(C)(C)C)c2cccc(NC(=O)c3c(Cl)ccc(CNC(=O)C(C)(C)C)c3F)c2n1 [Example-65, N-(4-(tert-Butylamino)-2-methylquinazolin-8-yl)-6-chloro-2-fluoro-3-(pivalamidomethyl)benzamide]	94	93	< 50
Cc1nc(N2CCOCC2)c2cccc(NC(=O)c3c(Cl)ccc(CNC(=O)C(C)(C)C)c3F)c2n1 [Example-58, 6-Chloro-2-fluoro-N-(2-methyl-4-morpholinoquinazolin-8-yl)-3-(pivalamidomethyl)benzamide]	51.3	93.4	–
CC(C)(C)C(=O)NCc1ccc(Cl)c(C(=O)Nc2cccc3c(Nc4ccc(C(F)(F)F)cc4F)ncnc23)c1F [Example-29, 6-Chloro-2-fluoro-N-(4-((2-fluoro-4-(trifluoromethyl)phenyl)amino)quinazolin-8-yl)-3-(pivalamidomethyl)benzamide]	99	99.8	< 50

The next lines start with the values.

inhibition at 1 µM [%]	inhibition at 10 µM [%]	IC50 [nM]	Structure (SMILES)
94.3	93.9	< 50	CC(C)(C)C(=O)NCc1ccc(Cl)c(C(=O)Nc2cccc3c(Oc4cccc(C(F)(F)F)c4)ccnc23)n1 [Example-17, 3-Chloro-6-(pivalamidomethyl)-N-(4-(3-(trifluoromethyl)phenoxy)quinolin-8-yl)picolinamide]
100	96.7	< 50	CC(C)(C)C(=O)NCc1ccc(Cl)c(C(=O)Nc2cccc3c(Oc4cccc(C(F)(F)F)c4)nccc23)c1 [Example-7, 2-Chloro-5-(pivalamidomethyl)-N-(1-(3-(trifluoromethyl)phenoxy)isoquinolin-5-yl)benzamide]
89.4	97.7	< 50	CC(C)(C)C(=O)NCc1ccc(Cl)c(C(=O)Nc2cccc3c(Oc4ccc(C(F)(F)F)cc4)nccc23)c1 [Example-46, 2-Chloro-5-(pivalamidomethyl)-N-(1-(4-(trifluoromethyl)phenoxy)isoquinolin-5-yl)benzamide]
91.9	91	< 50	COc1c(CNC(=O)C(C)(C)C)ccc(Cl)c1C(=O)Nc1cccc2c(Oc3cccc(C(F)(F)F)c3)ncnc12 [Example-49, 6-Chloro-2-methoxy-3-(pivalamidomethyl)-N-(4-(3-(trifluoromethyl)phenoxy)quinazolin-8-yl)benzamide]
91.1	95.2	< 50	CC(C)(C)C(=O)NCc1ccc(Cl)c(C(=O)Nc2cccc3c(Oc4ccc(F)c(C(F)(F)F)c4)nccc23)c1 [Example-48, 2-Chloro-N-(1-(4-fluoro-3-(trifluoromethyl)phenoxy)isoquinolin-5-yl)-5-(pivalamidomethyl)benzamide]
99.5	98.5	< 50	CC(C)(C)C(=O)NCc1ccc(Cl)c(C(=O)Nc2cccc3c(Oc4cccc(C(F)(F)F)c4)nccc23)c1F [Example-5, 6-Chloro-2-fluoro-3-(pivalamidomethyl)-N-(1-(3-(trifluoromethyl)phenoxy)isoquinolin-5-yl)benzamide]
98.6	99.8	< 50	CC(C)(C)C(=O)NCc1ccc(Cl)c(C(=O)Nc2cccc3c(Nc4cccc(C(F)(F)F)c4)nccc23)c1 [Example-4, 2-Chloro-5-(pivalamidomethyl)-N-(1-((3-(trifluoromethyl)phenyl)amino)isoquinolin-5-yl)benzamide]
99	99.6	< 50	CC(C)(C)C(=O)NCc1ccc(Cl)c(C(=O)Nc2cccc3c(Oc4cccc(C(F)(F)F)c4)ccnc23)c1 [Example-16, 2-Chloro-5-(pivalamidomethyl)-N-(4-(3-(trifluoromethyl)phenoxy)quinolin-8-yl)benzamide]
90.2	92.2	< 50	CC(C)(C)C(=O)NCc1ccc(Cl)c(C(=O)Nc2cccc3c(Nc4cccc(C(F)(F)F)c4)ncnc23)c1 [Example-13, 2-Chloro-5-(pivalamidomethyl)-N-(4-((3-(trifluoromethyl)phenyl)amino)quinazolin-8-yl)benzamide]
